Laboratory results reported in patent publication US9693996B1, “Chlorophyll c containing degranulation suppressor” (MARUHA NICHIRO CORPORATION, priority 2011, dated 2017).

What was measured:
[1] = test system: rat basophile derived cell line RBL-2H3; assay: Test for evaluating degranulation suppressing activity (β-hexosaminidase release); type: cell-based; details: for degranulation suppressing activity (percent degranulation): RBL-2H3 sensitized with anti DNP-IgE, stimulated with DNP-albumin, control group taken as 100%
Protocol: First, the rat basophile derived cell line RBL-2H3 was diluted with a DMEM medium (product of SIGMA) containing 10% fetal bovine serum (hereinafter referred to as FBS) to give a density of 2.5×10^5 cells/ml, dispensed on a 24-well culture plate in a volume of 1 ml/well, and cultured overnight at 37° C. under conditions of 5% CO2 and 100% humidity. After removing the culture supernatant, the cell surfaces were washed with 1 ml/well of a phosphate buffer solution (hereinafter referred to as PBS) and an anti DNP-IgE solution prepared by diluting mouse monoclonal anti-dinitrophenol (product of SIGMA) with a DMEM medium to give a concentration of 50 ng/ml was added in a volume of 500 μl/well, followed by incubation for 2 hours at 37° C. under conditions of 5% CO2 and 100% humidity. After the end of incubation, the anti DNP-IgE solution was removed and washing was done using 1.5 ml/well of a buffer solution containing 137 mM NaCl (product of nacalai tesque), 2.7 mM KCl (JUNSEI CHEMICAL), 1.8 Mm CaCl2.2H2O (JUNSEI CHEMICAL), 1 mM MgCl2. 6H2O (JUNSEI CHEMICAL), 5.6 mM glucose (Wako Pure Chemical Industries), 20 mM HEPES (Wako Pure Chemical Industries) and 0.1% BSA (the buffer solution being a modified Tyrode buffer which is hereinafter referred to as “MT buffer”); this procedure was repeated twice. Next, an MT buffer containing 0.5% of a chlorophyll, i.e., an authentic sample of chlorophyll a (product of DHI), an authentic sample of chlorophyll b (product of DHI), an authentic sample of chlorophyll c2 (product of DHI), or an authentic sample of chlorophyll d (purified from cyanobacteria adhering to surfaces of red algae, by referring to Non-Patent Documents 10 and 11, for example) was added in a volume of 490 μl/well and incubation was conducted for 10 minutes at 37° C. under conditions of 5% CO2 and 100% humidity. To a control group that would not undergo suppression of the degranulation reaction, an MT buffer containing 0.5% ethanol was added. After 10-min incubation, Albumin, dinitrophenyl (product of SIGMA) was added to give a concentration of 200 ng/ml and the mixture was stirred to homogeneity, followed by 30-min incubation at 37° C. under conditions of 5% CO2 and 100% humidity. After the end of incubation, the mixture was ice-cooled for 10 minutes to quench the reaction and 500 μl of the supernatant was recovered. To the cells from which the culture supernatant was recovered, Cell Lysate buffer (product of SIGMA) was added in a volume of 500 μl/well and thereafter an ultrasonic cell disrupter was used to form a homogeneous cell lysate which was recovered in a volume of 500 μl. The culture supernatant and the cell lysate were dispensed on a 96-well plate, each in a volume of 50 μl/well, and incubated at 37° C. for 5 minutes. After the end of incubation, an aqueous solution containing 100 mM citric acid and 3.3 mM p-nitrophenyl-2-acetoamido-2-deoxy-β-D-glucopyranoside (product of Wako Pure Chemical Industries) (the aqueous solution is hereinafter referred to as a “substrate solution”) was added in a volume of 100 μl/well and after thorough mixing, incubation was conducted at 37° C. for 25 minutes. After the end of incubation, an aqueous solution containing 2 M glycine (the aqueous solution is hereinafter referred to as a “reaction quencher”) was added in a volume of 100 μl/well and thorough mixing was conducted to quench the reaction; thereafter, a plate reader was used to measure the absorbance at 405 nm. Through this sequence of reactions, degranulation occurred and the activity of β-hexosaminidase contained in the granules was measured to calculate the proportion of granules released from the cells to the culture supernatant. […]

[2] = test system: rat basophile derived cell line RBL-2H3; assay: Test for evaluating percent cell survival (WST-1); type: cell-based; details: RBL-2H3, 40 min incubation
Protocol: The rat basophile derived cell line RBL-2H3 diluted to the same concentration as in Example 1 was dispensed on a 96-well culture plate in a volume of 0.1 ml/well and cultured overnight at 37° C. under conditions of 5% CO2 and 100% humidity. After removing the culture supernatant, the cell surfaces were washed with 1 ml/well of PBS and then an MT buffer containing an authentic sample of chlorophyll c2 at the same concentrations by dry weight as in Example 1 was added in a volume of 100 μl/well and incubation was conducted for 40 minutes at 37° C. under conditions of 5% CO2 and 100% humidity. To a control group that would not undergo suppression of the degranulation reaction, an MT buffer containing 0.5% ethanol was added. After 40-min incubation, WST-1 reagent (product of DOJINDO) was added in a volume of […] and the mixture was incubated for 30 minutes at 37° C. under conditions of 5% CO2 and 100% humidity. After the end of incubation, the mixture was left to stand at room temperature for 10 minutes and then the absorbance at 450 nm was measured to evaluate the percent cell survival.

Row | SMILES | degranulation suppressing activity (percent degranulation) [1] | percent cell survival (cytotoxicity) [2] | degranulation suppressing activity (percent degranulation) ([1]; listed as Fr. J) | concentration at which degranulation suppressing activity was already apparent ([1]; by dry weight, RBL-2H3, FIG. 1)
1 | C=Cc1c(C)c2cc3nc(c4c5[n-]c(cc6nc(cc1[n-]2)C(C)=C6CC)c(C)c5C(=O)[C@@H]4C(=O)OC)[C@@H](CCC(=O)OC/C=C(\C)CCC[C@H](C)CCC[C@H](C)CCCC(C)C)[C@@H]3C.[Mg+2] [chlorophyll a, reference compound] | no degranulation suppressing activity at all |  |  | 
2 | C=Cc1c(C)c2cc3nc(c4c5[n-]c(cc6nc(cc1[n-]2)C(C=O)=C6CC)c(C)c5C(=O)[C@@H]4C(=O)OC)[C@@H](CCC(=O)OC/C=C(\C)CCC[C@H](C)CCC[C@H](C)CCCC(C)C)[C@@H]3C.[Mg+2] [chlorophyll b, reference compound] | no degranulation suppressing activity at all |  |  | 
3 | C=Cc1c(C)c2[nH]c1=CC1=NC(=CC3=C(C)C4=C([O-])[C@H](C(=O)OC)C(=C5N=C(C=2)C(C)=C5/C=C/C(=O)[O-])C4=N3)C(CC)=C1C.[Mg+2] [chlorophyll c1] | found to exhibit the degranulation suppressing activity | neither the cell group treated with the authentic sample of chlorophyll c1 nor the cell group treated with the authentic sample of chlorophyll c3 was recognized to experience a drop in the percent cell survival |  | 
4 | C=CC1=C(C)C2=NC1=CC1=C(C)C3=C([O-])[C@H](C(=O)OC)C(=C4N=C(C=c5[nH]c(c(C=C)c5C)=C2)C(C)=C4/C=C/C(=O)[O-])C3=N1.[Mg+2] [chlorophyll c2] | exhibit the degranulation suppressing activity in a dose-dependent manner | none of the cell groups treated with the authentic sample of chlorophyll c2 experienced a drop in percent cell survival | found to have the evaluating degranulation suppressing activity | about 0.05 μg/ml
5 | C=CC1=C(C)C2=CC3=NC(=C4C5=NC(=C(C)C5=C([O-])[C@@H]4C(=O)OC)C=c4[nH]c(c(C(=O)OC)c4C=C)=CC1=N2)C(/C=C/C(=O)[O-])=C3C.[Mg+2] [chlorophyll c3] | found to exhibit the degranulation suppressing activity | neither the cell group treated with the authentic sample of chlorophyll c1 nor the cell group treated with the authentic sample of chlorophyll c3 was recognized to experience a drop in the percent cell survival |  | 
6 | CCC1=C(C)c2cc3[n-]c(cc4nc(c5c6[n-]c(cc1n2)c(C)c6C(=O)[C@@H]5C(=O)OC)[C@@H](CCC(=O)OC/C=C(\C)CCC[C@H](C)CCC[C@H](C)CCCC(C)C)[C@@H]4C)c(C)c3C=O.[Mg+2] [chlorophyll d, reference compound] | no degranulation suppressing activity at all |  |  | 
